According to patent US5037830A, “Novel thiouracyl derivatives, pharmaceutical compositions containing them and process for preparing same” (Richter Gedeon Vegyeszeti Gyar RT, priority 1989, dated 1991):
Like-named read-outs stand apart in the source and are kept apart here.

What was measured:
[1] = tested on: gastric ulcer after pylorus ligature; assay: Gastric ulcer-inhibiting effect in rats operated according to Shay's method; assay type: in vivo, female OFA rats; conditions: for ED50: Rattus norvegicus, po, 18 h, p.o.
Description: Female OFA rats starved for 24 hours weighing 150 to 160 g were used. (The animals were allowed to drink water ad libitum). The animals were orally treated with the substance to be tested and after 1 hour laparotomy and pylorus ligature according to Shay [Gastroenterology 5, 43 (1945)] were performed under ether anaesthesia. After 18 hours the number and size of ulcers formed on the membranaceous part of the stomach were examined under microscope. The evaluation was made in relation to the control group and the ED50 values were determined. The sizes of the ulcers were expressed as score values from 0.5 to 32.

[2] = tested on: gastric ulcer induced by Aspirin plus stress; assay: Inhibition of the gastric ulcer induced by Aspirin plus stress; assay type: in vivo, female RG-Wistar rats
Description: After being starved for 24 hours, female RG-Wistar rats weighing 120 to 150 g were orally treated with the compound to be tested and then orally with Aspirin. The animals were sensitized by the aspirin pretreatment and a strong ulceration was induced in the glandular part of stomach of the animals by a subsequent stress (fastening, ducking in water of 22° C. temperature). The ulceration was evaluated as score values from 0 to 2.

[3] = tested on: acetic acid-induced chronic ulcer; assay: Recovery-influencing effect on the acetic acid-induced chronic ulcer; assay type: in vivo, female RG-Wistar rats
Description: After anaesthesia by ether and laparotomy, 50 μl of 20% acetic acid were injected into the stomach wall of female RG-Wistar rats. After 5 days the animals were orally treated with the compounds to be tested daily twice for 15 days. On the 16th day the animals were killed by ether and the size of the ulcers appearing on the stomach was measured. The grade of recovery was defined in relation to the control group.

[4] = tested on: spontaneous gastric acid secretion; assay: Gastric acid secretion-inhibiting effect according to Shay's method; assay type: in vivo, female OFA rats; conditions: for Gastric acid, change / Gastric juice, change: vs control; for Gastric acid, treated: titration with 0.1N NaOH
Description: After being starved for 24 hours, female OFA rats weighing 130 to 160 g were orally treated with the compounds to be tested. (15 animals were used for each dose.) One hour later laparotomy and pylorus ligature were carried out under ether anaesthesia according to Shay [Gastroenterology 5, 43 (1945)]. After 5 hours the animals were killed by an overdose of ether, their stomaches were excised and the volume and acid content of the gastric juice were determined. The acid was measured by titration with 0.1N NaOH, by using Topfer's indicator.

[5] = tested on: necrosis induced by ethanol containing hydrochloric acid; assay: Cytoprotective effect (modified Robert's test); assay type: in vivo; conditions: for Bleedings, change: vs control
Description: The modified Robert's test [Gastroenterology 17, 761 (1979)] was used. The necrotizing agent (100 ml of abs. ethanol containing 2 ml of concentrated hydrochloric acid) was orally administered in a volume of 0.5 ml/100 g by 30 minutes after giving the compound to be tested. (12 animals were used for each dose.) After 1 hour the animals were killed by ether and the bleedings on the glandular part of their stomach were evaluated.

[6] = tested on: histamine-induced gastric acid secretion; assay: Inhibition of the histamine-induced gastric acid secretion in rats; assay type: in vivo, male OFA rats; conditions: for Gastric acid, change / Gastric juice, change: vs control; for Gastric juice, treated: histamine 5 mg/kg/hour;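 for Gastric acid, treated: dosed 30 min before a 5 hour experiment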
Description: (§1) After being starved for 24 hours, male OFA rats weighing 250 to 320 g were anaestethized by 40% urethane (0.5 ml/100 g), then the trachea and jugular vein were cannulated (10 animals were used for each dose). A glass cannula was inserted to the stomach from the direction of the pylorus. The stomach was washed with lukewarm water and then purified by air blown through. The gastric acid secretion was induced by an infusion of histamine (5 mg/kg/hour), or pentagastrin (0.05 mg/kg/hour) or carbachol (0.01 mg/kg/hour), respectively. […]

[7] = tested on: reserpine-induced gastric ulcer; assay: Inhibition of the reserpine-induced gastric ulcer; assay type: in vivo, female OFA rats; conditions: for ED50: Rattus norvegicus, po, 18 h, p.o., reserpine 5 mg/kg s.c.
Description: After being starved for 24 hours, female OFA rats were orally treated with the compounds to be tested and then subcutaneously (s.c.) with 5 mg/kg of reserpine after 1 hour. After 18 hours the animals were killed and their stomach were examined under microscope. The evaluation was performed as described under the preceding paragraph 1.

[8] = tested on: indomethacin-induced gastric ulcer; assay: Inhibition of the indomethacin-induced gastric ulcer; assay type: in vivo, female RG-Wistar rats
Description: After being starved for 24 hours, female RG-Wistar rats were orally treated with the compounds to be tested and then orally with 20 mg/kg of indomethacin after 30 minutes. The evaluation was carried out in relation to the control group and the ED50 values were determined.

Acute toxicity, mouse = conditions: in vivo
Description: These investigations were carried out in OFI mice and OFA rats after starving for 24 hours. Ten animals were used for each dose. The number of doses was 3 or 4.

[9] = tested on: carbachol-induced gastric acid secretion; assay: Inhibition of the carbachol-induced gastric acid secretion in rats; assay type: in vivo, male OFA rats; conditions: for Gastric acid, change / Gastric juice, change: vs control; for Gastric juice, treated: carbachol 0.01 mg/kg/hour;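 for Gastric acid, treated: dosed 30 min before a 5 hour experiment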
Description: as §1

[10] = read-out: ED50 related to the number of ulcers
[11] = read-out: ED50 related to the occurrance of ulcers
[12] = read-out: ED50 related to the severity of ulcers

Cc1cc(=O)[nH]c(SCc2ccccc2N(C)C)n1 [Example 1, 2-(2-dimethylaminobenzyl)thio-6-methyl-4(3H)-pyrimidinone]
ED50 [1, 10]: 3.3 mg/kg
ED50 [1, 11]: 9 mg/kg
ED50 [1, 12]: 3.7 mg/kg
ulcer inhibition, in words ([1]; compared with reference drugs): significantly stronger inhibited
ED50 ([2]; Rattus norvegicus, po, Aspirin plus stress): 7.3 mg/kg
ulcer inhibition, in words ([2]; compared with reference drugs): significantly stronger inhibited
increase in the recovery ([3]; 15 mg/kg oral dose, daily twice for 15 days): 45%
recovery from developed gastric ulcers, in words ([3]; compared with reference drug): better results were achieved in the recovery from developed gastric ulcers
Gastric juice, treated ([4]; 10 mg/kg p.o.): 6.76 mL
Gastric acid, change ([4]; 10 mg/kg p.o.): -28.2%
Gastric juice, change ([4]; 10 mg/kg p.o.): -10.6%
Gastric acid, treated ([4]; 10 mg/kg p.o.): 2.45 mL
Gastric juice, treated ([4]; 20 mg/kg p.o.): 6.15 mL
Gastric acid, change ([4]; 20 mg/kg p.o.): -65.1%
Gastric juice, change ([4]; 20 mg/kg p.o.): -12.9%
Gastric acid, treated ([4]; 20 mg/kg p.o.): 1.17 mL
Gastric juice, treated ([4]; 40 mg/kg p.o.): 4.51 mL
Gastric acid, change ([4]; 40 mg/kg p.o.): -92.4%
Gastric juice, change ([4]; 40 mg/kg p.o.): -34.4%
Gastric acid, treated ([4]; 40 mg/kg p.o.): 0.22 mL
inhibitor effect on gastric acid secretion, in words ([4]; compared with reference drugs): equiactive to the NC-1300 reference drug
ED50 ([4]; po, gastric acid, Shay rat): 15 mg/kg
Bleedings, treated ([5]; 10 mg/kg p.o.): 62.0 mm
Bleedings, change ([5]; 10 mg/kg p.o.): -38.7%
Bleedings, treated ([5]; 20 mg/kg p.o.): 42.1 mm
Bleedings, change ([5]; 20 mg/kg p.o.): -56.9%
Bleedings, treated ([5]; 40 mg/kg p.o.): 10.9 mm
Bleedings, change ([5]; 40 mg/kg p.o.): -89.6%
ED50 ([5]; po, cytoprotection): 14.5 mg/kg
Gastric acid, treated ([6]; 6.25 mg/kg i.p.): 3.41 mL
Gastric acid, change ([6]; 6.25 mg/kg i.p.): -42%
Gastric juice, change ([6]; 6.25 mg/kg i.p.): -44%
Gastric juice, treated ([6]; 6.25 mg/kg i.p.): 2.14 mL
Gastric acid, treated ([6]; 12.5 mg/kg i.p.): 1.90 mL
Gastric acid, change ([6]; 12.5 mg/kg i.p.): -68%
Gastric juice, change ([6]; 12.5 mg/kg i.p.): -64%
Gastric juice, treated ([6]; 12.5 mg/kg i.p.): 1.38 mL
Gastric acid, treated ([6]; 25 mg/kg i.p.): 0.66 mL
Gastric acid, change ([6]; 25 mg/kg i.p.): -89%
Gastric juice, change ([6]; 25 mg/kg i.p.): -87%
Gastric juice, treated ([6]; 25 mg/kg i.p.): 0.49 mL
ED50 ([6]; Rattus norvegicus, ip, histamine-induced, dose column i.p.): 6.8 mg/kg
ED50 [7, 10]: 16 mg/kg
ED50 [7, 11]: 18 mg/kg
ED50 [7, 12]: 15 mg/kg
ulcer inhibition, in words ([7]; compared with reference drugs): significantly stronger inhibited
ED50 ([8]; Rattus norvegicus, po, indomethacin 20 mg/kg orally): 8.2 mg/kg
ulcer inhibition, in words ([8]; compared with reference drugs): significantly stronger inhibited
LD50 (Acute toxicity, mouse; ip, female mouse): 365 mg/kg
LD50 (Acute toxicity, mouse; ip, male mouse): 360 mg/kg
LD50 (Acute toxicity, mouse; po, female mouse, precision restricted by solubility): > 1000 mg/kg
LD50 (Acute toxicity, mouse; po, male mouse, precision restricted by solubility): > 1000 mg/kg
Gastric acid, treated ([9]; 12.5 mg/kg i.p.): 2.14 mL
Gastric acid, change ([9]; 12.5 mg/kg i.p.): -22%
Gastric juice, change ([9]; 12.5 mg/kg i.p.): -20%
Gastric juice, treated ([9]; 12.5 mg/kg i.p.): 1.65 mL
Gastric acid, treated ([9]; 20 mg/kg i.p.): 0.90 mL
Gastric acid, change ([9]; 20 mg/kg i.p.): -67%
Gastric juice, change ([9]; 20 mg/kg i.p.): -66%
Gastric juice, treated ([9]; 20 mg/kg i.p.): 0.71 mL
Gastric acid, treated ([9]; 25 mg/kg i.p.): 0.37 mL
Gastric acid, change ([9]; 25 mg/kg i.p.): -87%
Gastric juice, change ([9]; 25 mg/kg i.p.): -83%
Gastric juice, treated ([9]; 25 mg/kg i.p.): 0.34 mL
ED50 ([9]; Rattus norvegicus, ip, carbachol-induced, dose column i.p.): 16.5 mg/kg
